Measurements published in patent US8268840B2, “Pyrimidinyl pyridone inhibitors of kinases” (Roche Palo Alto LLC, priority 2008, dated 2012).

Structure (SMILES)	melting point [°C]
CC(=O)N[C@H]1CC[C@H](Nc2ncc3c(N)cc(=O)n(CCCO)c3n2)CC1 [Compound I-42, N-{4-[5-Amino-8-(3-hydroxy-propyl)-7-oxo-7,8-dihydro-pyrido[2,3-d]pyrimidin-2-ylamino]-cyclohexyl}-acetamide]	> 300
Nc1cc(=O)n(C2CC2)c2nc(NC3CCOCC3)ncc12 [Compound I-54, 5-Amino-8-cyclopropyl-2-(tetrahydro-pyran-4-ylamino)-8H-pyrido[2,3-d]pyrimidin-7-one]	264.4 to 266.8
Nc1cc(=O)n(C2CC2)c2nc(N[C@H]3CC[C@H](O)CC3)ncc12 [Compound I-22, 5-Amino-8-cyclopropyl-2-(4-hydroxy-cyclohexylamino)-8H-pyrido[2,3-d]pyrimidin-7-one]	256.3 to 258.7
CCn1c(=O)cc(N)c2cnc(NC3CCOCC3)nc21 [Compound I-50, 5-Amino-8-ethyl-2-(tetrahydro-pyran-4-ylamino)-8H-pyrido[2,3-d]pyrimidin-7-one]	235 to 238.2
N#Cc1c(N)c2cnc(N[C@H]3CC[C@H](C(=O)N4CCC(O)CC4)CC3)nc2n(C2CCC2)c1=O [Compound I-38, 5-Amino-8-cyclobutyl-2-[4-(4-hydroxy-piperidine-1-carbonyl)-cyclohexylamino]-7-oxo-7,8-dihydro-pyrido[2,3-d]pyrimidine-6-carbonitrile]	> 300
CS(=O)(=O)N[C@H]1CC[C@H](Nc2ncc3c(N)cc(=O)n(C4CCCCC4)c3n2)CC1 [Compound I-14, N-[4-(5-Amino-8-cyclohexyl-7-oxo-7,8-dihydro-pyrido[2,3-d]pyrimidin-2-ylamino)-cyclohexyl]-methanesulfonamide]	> 300
Cc1ccccc1Nc1ncc2c(N)c(C)c(=O)n(C3CCC3)c2n1 [Compound I-62, 5-Amino-8-cyclobutyl-6-methyl-2-o-tolylamino-8H-pyrido[2,3-d]pyrimidin-7-one]	186 to 187
Nc1cc(=O)n(C2CCCCC2)c2nc(NC3CCCCC3)ncc12 [Compound I-32, 5-Amino-8-cyclohexyl-2-cyclohexylamino-8H-pyrido[2,3-d]pyrimidin-7-one]	243.1 to 244.9
CC(C)c1c(N)c2cnc(NC3CCCCC3)nc2n(C2CCC2)c1=O [Compound I-49, 5-Amino-8-cyclobutyl-2-cyclohexylamino-6-isopropyl-8H-pyrido[2,3-d]pyrimidin-7-one]	277.5 to 278
Nc1cc(=O)n(C2CCCC2)c2nc(N[C@H]3CC[C@H](C(=O)N4CCOCC4)CC3)ncc12 [Compound I-13, 5-Amino-8-cyclopentyl-2-[4-(morpholine-4-carbonyl)-cyclohexylamino]-8H-pyrido[2,3-d]pyrimidin-7-one]	292.5 to 295.3
Cc1c(N)c2cnc(N[C@H]3CC[C@H](C(C)(C)O)CC3)nc2n(C2CCC2)c1=O [Compound I-20, 5-Amino-8-cyclobutyl-2-[4-(1-hydroxy-1-methyl-ethyl)-cyclohexylamino]-6-methyl-8H-pyrido[2,3-d]pyrimidin-7-one]	223 to 224.8
Cc1c(N)c2cnc(NC3CCCCC3)nc2n([C@@H]2CCOC2)c1=O [Compound I-44, 5-Amino-2-cyclohexylamino-6-methyl-8-(R)-tetrahydro-furan-3-yl-8H-pyrido[2,3-d]pyrimidin-7-one]	225 to 226
CC(=O)N1CCC(Nc2ncc3c(N)cc(=O)n([C@@H]4CC[C@@H](O)C4)c3n2)CC1 (racemic) [Compound I-37, 2-(1-Acetyl-piperidin-4-ylamino)-5-amino-8-((1R,3R)-3-hydroxy-cyclopentyl)-8H-pyrido[2,3-d]pyrimidin-7-one]	192 to 194
COC(=O)N[C@H]1CC[C@H](Nc2ncc3c(N)cc(=O)n(C4CCCCC4)c3n2)CC1 [Compound I-19, [4-(5-Amino-8-cyclohexyl-7-oxo-7,8-dihydro-pyrido[2,3-d]pyrimidin-2-ylamino)-cyclohexyl]-carbamic acid methyl ester]	193.9 to 198
Cc1c(N)c2cnc(NC3CCN(S(C)(=O)=O)CC3)nc2n(C2CCC2)c1=O [Compound I-40, 5-Amino-8-cyclobutyl-2-(1-methanesulfonyl-piperidin-4-ylamino)-6-methyl-8H-pyrido[2,3-d]pyrimidin-7-one]	265.3 to 267
Nc1c(-c2ccccc2)c(=O)n(C2CCC2)c2nc(NC3CCCCC3)ncc12 [Compound I-31, 5-Amino-8-cyclobutyl-2-cyclohexylamino-6-phenyl-8H-pyrido[2,3-d]pyrimidin-7-one]	160 to 161
Nc1cc(=O)n(C2CCCCC2)c2nc(NC3CCC(F)(F)CC3)ncc12 [Compound I-57, 5-Amino-8-cyclohexyl-2-(4,4-difluoro-cyclohexylamino)-8H-pyrido[2,3-d]pyrimidin-7-one]	240 to 244.1
CC(=O)N[C@H]1CC[C@H](Nc2ncc3c(N)cc(=O)n([C@@H]4CC[C@@H](O)C4)c3n2)CC1 [Compound I-18, N-{4-[5-Amino-8-((1R,3R)-3-hydroxy-cyclopentyl)-7-oxo-7,8-dihydro-pyrido[2,3-d]pyrimidin-2-ylamino]-cyclohexyl}-acetamide]	210 to 211.5
CC(=O)c1c(N)c2cnc(NC3CCCCC3)nc2n(C2CCC2)c1=O [Compound I-68, 6-Acetyl-5-amino-8-cyclobutyl-2-cyclohexylamino-8H-pyrido[2,3-d]pyrimidin-7-one]	256 to 257
Cc1c(N)c2cnc(N[C@H]3CCCC[C@@H]3C)nc2n(C2CCC2)c1=O (racemic) [Compound I-60, 5-Amino-8-cyclobutyl-6-methyl-2-((1S,2S)-2-methyl-cyclohexylamino)-8H-pyrido[2,3-d]pyrimidin-7-one]	209 to 210
Cc1c(N)c2cnc(N[C@H]3CC[C@H](C(=O)N4CCC(O)CC4)CC3)nc2n(C2CCC2)c1=O [Compound I-15, 5-Amino-8-cyclobutyl-2-[4-(4-hydroxy-piperidine-1-carbonyl)-cyclohexylamino]-6-methyl-8H-pyrido[2,3-d]pyrimidin-7-one]	191.5 to 193
COC(=O)N[C@H]1CC[C@H](Nc2ncc3c(N)cc(=O)n(C4CCC4)c3n2)CC1 [Compound I-2, [4-(5-Amino-8-cyclobutyl-7-oxo-7,8-dihydro-pyrido[2,3-d]pyrimidin-2-ylamino)-cyclohexyl]-carbamic acid methyl ester]	154.3 to 156

The remaining lines, values ahead:

melting point [°C]	Structure (SMILES)
281 to 283	CC(=O)N1CCC(Nc2ncc3c(N)c(C)c(=O)n(C4CCCC4)c3n2)CC1 [Compound I-59, 2-(1-Acetyl-piperidin-4-ylamino)-5-amino-8-cyclopentyl-6-methyl-8H-pyrido[2,3-d]pyrimidin-7-one]
160 to 164	Nc1cc(=O)n(C2CCCCC2)c2nc(NC3CCOCC3)ncc12 [Compound I-51, 5-Amino-8-cyclohexyl-2-(tetrahydro-pyran-4-ylamino)-8H-pyrido[2,3-d]pyrimidin-7-one]
186.8 to 188	Cc1c(N)c2cnc(N[C@H]3CC[C@H](C(=O)N4CCOCC4)CC3)nc2n(C2CCCC2)c1=O [Compound I-10, 5-Amino-8-cyclopentyl-6-methyl-2-[4-(morpholine-4-carbonyl)-cyclohexylamino]-8H-pyrido[2,3-d]pyrimidin-7-one]
201.3 to 202.6	CCOC(=O)N1CCC(Nc2ncc3c(N)c(C)c(=O)n(C4CCC4)c3n2)CC1 [Compound I-56, 4-(5-Amino-8-cyclobutyl-6-methyl-7-oxo-7,8-dihydro-pyrido[2,3-d]pyrimidin-2-ylamino)-piperidine-1-carboxylic acid ethyl ester]
135 to 137.4	Nc1cc(=O)n(CC2CC2)c2nc(NC3CCOCC3)ncc12 [Compound I-46, 5-Amino-8-cyclopropylmethyl-2-(tetrahydro-pyran-4-ylamino)-8H-pyrido[2,3-d]pyrimidin-7-one]
160 to 161	Cc1c(N)c2cnc(N[C@@H]3CCCC[C@@H]3C)nc2n(C2CCC2)c1=O (racemic) [Compound I-58, 5-Amino-8-cyclobutyl-6-methyl-2-((1R,2S)-2-methyl-cyclohexylamino)-8H-pyrido[2,3-d]pyrimidin-7-one]
209 to 210	Cc1c(N)c2cnc(N[C@@H]3CCCC[C@H]3C)nc2n(C2CCC2)c1=O [Compound I-34, 5-Amino-8-cyclobutyl-6-methyl-2-((1R,2R)-2-methyl-cyclohexylamino)-8H-pyrido[2,3-d]pyrimidin-7-one]
260 to 261	Cc1c(N)c2cnc(N[C@H]3CC[C@H](N(C)S(C)(=O)=O)CC3)nc2n(C2CCC2)c1=O [Compound I-24, N-[4-(5-Amino-8-cyclobutyl-6-methyl-7-oxo-7,8-dihydro-pyrido[2,3-d]pyrimidin-2-ylamino)-cyclohexyl]-N-methyl-methanesulfonamide]
128.3 to 130	Nc1cc(=O)n(C2CCCC2)c2nc(Nc3ccccc3)ncc12 [Compound I-45, 5-Amino-8-cyclopentyl-2-phenylamino-8H-pyrido[2,3-d]pyrimidin-7-one]
245.6 to 246.8	Nc1cc(=O)n(Cc2ccccc2)c2nc(NC3CCOCC3)ncc12 [Compound I-69, 5-Amino-8-benzyl-2-(tetrahydro-pyran-4-ylamino)-8H-pyrido[2,3-d]pyrimidin-7-one]
292 to 294	Nc1cc(=O)n(C2CCCCC2)c2nc(N[C@H]3CC[C@H](O)CC3)ncc12 [Compound I-6, 5-Amino-8-cyclohexyl-2-(4-hydroxy-cyclohexylamino)-8H-pyrido[2,3-d]pyrimidin-7-one]
175 to 176	Nc1c(-c2ccccc2Cl)c(=O)n(C2CCC2)c2nc(NC3CCCCC3)ncc12 [Compound I-16, 5-Amino-6-(2-chloro-phenyl)-8-cyclobutyl-2-cyclohexylamino-8H-pyrido[2,3-d]pyrimidin-7-one]
257 to 259	COC(=O)N[C@H]1CC[C@H](Nc2ncc3c(N)cc(=O)n(C4CC4)c3n2)CC1 [Compound I-39, [4-(5-Amino-8-cyclopropyl-7-oxo-7,8-dihydro-pyrido[2,3-d]pyrimidin-2-ylamino)-cyclohexyl]-carbamic acid methyl ester]
